Reference: US6331551A, “Methods of treating microbial infection and therapeutic formulations therefor” (priority 2000, dated 2001)
Values after ≈ are worked out from the molar mass of the structure shown. Values belong to the compound of their own block, whether it stands above or below them.

Assays:
gram negative acne = settings: oral, subsequent to oral tetracycline or erythromycin; Poli et al. 1988; cited from earlier work
Aspergillus flavus = assay: Antifungal MIC on potato dextrose agar; assay type: cell-based; settings: PDA, 26° C., 48 hr up to one week
Protocol: (§1) The yeast and fungi listed below in Table 2 were grown on potato dextrose agar (PDA) containing different concentrations of sclareol and sclareolide, according to the following method: sclareol or sclareolide (in powder form) was added to pre-measured amounts of PDA medium in petri plates, mixed thoroughly by tilting the petri plate from side to side, and allowed to solidify. The sclareol and […] in preparing the petri plates was of greater than 99% purity. After solidification, the plates were inoculated with 5 mm disks, cut from the outer margin of the actively growing cultures of yeast and fungi and placed in the center of the plate in an inverted position in direct contact with the sclareol/sclareolide impregnated medium. The plates were incubated at 26° C. The plates were monitored periodically to estimate the minimum inhibitory concentration (MIC) based on the growth proliferation from the 5 mm inoculum disk. The results were measured and recorded after 48 hr, up to one week. A summary of the effects of sclareol and sclareolide against the bacteria and fungi tested in Examples 1 and 2 is provided in Table 3. The data is presented as the effect of sclareol and sclareolide on selected microbial cultures, in terms of minimum inhibitory concentration, as measured in μg/ml.

Penicillium notatum = assay: Antifungal MIC on potato dextrose agar; assay type: cell-based; settings: Penicillium chrysogenum, PDA, 26° C., 48 hr up to one week
Protocol: as §1

Saccharomyces cerevisiae = assay: Antifungal MIC on potato dextrose agar; assay type: cell-based; settings: PDA, 26° C., 48 hr up to one week
Protocol: as §1

Candida kefyr = assay: Antifungal MIC on potato dextrose agar; assay type: cell-based; settings: Kluyveromyces marxianus, PDA, 26° C., 48 hr up to one week
Protocol: as §1

bacteria tested = assay: Disk antibacterial test, overall; assay type: cell-based; settings: in general
Protocol: (§2) The following seven bacteria were grown on nutrient agar slants for 48 hours at 37° C.: Enterobacter aerogens, Propionibacterium acnes, Pseudomonas aeruginosa, Escherichia coli, Bacillus subtilis, Agrobacterium tumefaciens, and Staphylococcus aureus.
(§3) A bacterial colony from each of the respective slants was suspended in 1 ml sterile deionized water. 0.1 ml of each cell suspension was evenly spread on nutrient agar plates (10×10^5 cells/ml). After 30 min, sclareol and sclareolide-impregnated disks were placed on bacteria-lawned plates. The sclareol and sclareolide used in this experiment were relatively pure samples (greater than 99% pure). Triplicate disks of (10, 100, 500, and 1000 ug/disk) of each sample was applied on to 6 mm diameter (0.3 mm thickness) filter paper disks and air dried. Controls were prepared with respective solvents. Plates were incubated for 24-48 hr at 37° C. The inhibition zones were measured and recorded after 15 hr, up to 48 hr.

Escherichia coli = assay: Disk zone of inhibition / antibacterial activity; assay type: cell-based; set-up: key to Zone of inhibition: +++: High inhibition; ++: moderate inhibition; +: low inhibition; -: non inhibition; settings: E. coli; for MIC: Escherichia coli
Protocol: as §2, §3
(§4) A summary of the effects of sclareol and sclareolide against the bacteria and fungi tested in Examples 1 and 2 is provided in Table 3. The data is presented as the effect of sclareol and sclareolide on selected microbial cultures, in terms of minimum inhibitory concentration, as measured in μg/ml.

Pseudomonas aeruginosa = assay: Disk zone of inhibition / antibacterial activity; assay type: cell-based; set-up: key to Zone of inhibition: +++: High inhibition; ++: moderate inhibition; +: low inhibition; -: non inhibition; settings: P. aeruginosa; for MIC: Pseudomonas aeruginosa
Protocol: as §2, §3, §4

Propionibacterium acnes = assay: Disk zone of inhibition / antibacterial activity; assay type: cell-based; set-up: key to Zone of inhibition: +++: High inhibition; ++: moderate inhibition; +: low inhibition; -: non inhibition; settings: P. acnes; for MIC: Cutibacterium acnes
Protocol: as §2, §3, §4

Enterobacter aerogens = assay: Disk zone of inhibition / antibacterial activity; assay type: cell-based; set-up: key to Zone of inhibition: +++: High inhibition; ++: moderate inhibition; +: low inhibition; -: non inhibition; settings: E. aerogens; for MIC: Enterobacter
Protocol: as §2, §3, §4

Bacillus subtilis = assay: Disk zone of inhibition / antibacterial activity; assay type: cell-based; set-up: key to Zone of inhibition: +++: High inhibition; ++: moderate inhibition; +: low inhibition; -: non inhibition; settings: for MIC: Bacillus subtilis, B. subtilis; for Zone of inhibition: D. subtilis [sic]
Protocol: as §2, §3, §4

Staphylococcus aureus = assay: Disk zone of inhibition / antibacterial activity; assay type: cell-based; set-up: key to Zone of inhibition: +++: High inhibition; ++: moderate inhibition; +: low inhibition; -: non inhibition; settings: S. aureus; for MIC: Staphylococcus aureus
Protocol: as §2, §3, §4

[1] = system: Agrobacterium tumefaciens; assay: Disk zone of inhibition / antibacterial activity; assay type: cell-based; set-up: key to Zone of inhibition: +++: High inhibition; ++: moderate inhibition; +: low inhibition; -: non inhibition; settings: A. tumefaciens; for MIC: Agrobacterium tumefaciens
Protocol: as §2, §3, §4

[2] = system: Gram positive bacteria, specifically, S. aureus and P. acnes; assay: Disk antibacterial test, Gram positive bacteria; assay type: cell-based
Protocol: as §2, §3

SMILES: CC1(C)S[C@@H]2[C@H](NC(=O)[C@H](N)c3ccccc3)C(=O)N2[C@H]1C(=O)O [ampicillin]
effectiveness in treating gram negative acne (gram negative acne): effective

SMILES: CC1(C)S[C@@H]2[C@H](NC(=O)[C@H](N)c3ccc(O)cc3)C(=O)N2[C@H]1C(=O)O [amoxicillin]
effectiveness in treating gram negative acne (gram negative acne): effective

SMILES: C=C[C@](C)(O)CC[C@@H]1[C@@]2(C)CCCC(C)(C)[C@@H]2CC[C@@]1(C)O [Sclareol, sclareol]
MIC (Aspergillus flavus): 1000 µg/mL (≈ 3240 µM) | MIC (Penicillium notatum): 1000 µg/mL (≈ 3240 µM) | MIC (Saccharomyces cerevisiae): 500 µg/mL (≈ 1620 µM) | MIC (Candida kefyr): 100 µg/mL (≈ 324 µM) | relative activity against the bacteria tested (bacteria tested): more active than sclareolide | sensitivity to treatment (Escherichia coli): least sensitive | Zone of inhibition (Escherichia coli; 10 ug/disk): - | Zone of inhibition (Escherichia coli; 100 ug/disk): - | Zone of inhibition (Escherichia coli; 500 ug/disk): + | Zone of inhibition (Escherichia coli; 1000 ug/disk): ++ | MIC (Escherichia coli): 500 µg/mL (≈ 1620 µM) | sensitivity to treatment (Pseudomonas aeruginosa): least sensitive | Zone of inhibition (Pseudomonas aeruginosa; 10 ug/disk): - | Zone of inhibition (Pseudomonas aeruginosa; 100 ug/disk): + | Zone of inhibition (Pseudomonas aeruginosa; 500 ug/disk): ++ | Zone of inhibition (Pseudomonas aeruginosa; 1000 ug/disk): ++ | MIC (Pseudomonas aeruginosa): 100 µg/mL (≈ 324 µM) | MIC (Propionibacterium acnes): 40 µg/mL (≈ 130 µM) | sensitivity to treatment (Propionibacterium acnes): more sensitive | Zone of inhibition (Propionibacterium acnes; 10 ug/disk): + | Zone of inhibition (Propionibacterium acnes; 100 ug/disk): +++ | Zone of inhibition (Propionibacterium acnes; 500 ug/disk): +++ | Zone of inhibition (Propionibacterium acnes; 1000 ug/disk): +++ | sensitivity to treatment (Enterobacter aerogens): more sensitive | Zone of inhibition (Enterobacter aerogens; 10 ug/disk): + | Zone of inhibition (Enterobacter aerogens; 100 ug/disk): +++ | Zone of inhibition (Enterobacter aerogens; 500 ug/disk): +++ | Zone of inhibition (Enterobacter aerogens; 1000 ug/disk): +++ | MIC (Enterobacter aerogens): 10 µg/mL (≈ 32.4 µM) | MIC (Bacillus subtilis): 10 µg/mL (≈ 32.4 µM) | Zone of inhibition (Bacillus subtilis; 10 ug/disk): + | Zone of inhibition (Bacillus subtilis; 100 ug/disk): + | Zone of inhibition (Bacillus subtilis; 500 ug/disk): ++ | Zone of inhibition (Bacillus subtilis; 1000 ug/disk): ++ | sensitivity to treatment (Staphylococcus aureus): more sensitive | Zone of inhibition (Staphylococcus aureus; 10 ug/disk): + | Zone of inhibition (Staphylococcus aureus; 100 ug/disk): ++ | Zone of inhibition (Staphylococcus aureus; 500 ug/disk): +++ | Zone of inhibition (Staphylococcus aureus; 1000 ug/disk): +++ | MIC (Staphylococcus aureus): 50 µg/mL (≈ 162 µM) | Zone of inhibition ([1]; 10 ug/disk): + | Zone of inhibition ([1]; 100 ug/disk): ++ | Zone of inhibition ([1]; 500 ug/disk): +++ | Zone of inhibition ([1]; 1000 ug/disk): +++ | MIC [1]: 10 µg/mL (≈ 32.4 µM) | activity against Gram positive bacteria [2]: more active against Gram positive bacteria

MIC (Aspergillus flavus): 1000 µg/mL (≈ 3990 µM) | MIC (Penicillium notatum): 1000 µg/mL (≈ 3990 µM) | MIC (Saccharomyces cerevisiae): 500 µg/mL (≈ 2000 µM) | MIC (Candida kefyr): 400 µg/mL (≈ 1600 µM) | MIC (Escherichia coli): 500 µg/mL (≈ 2000 µM) | MIC (Pseudomonas aeruginosa): 500 µg/mL (≈ 2000 µM) | MIC (Propionibacterium acnes): 40 µg/mL (≈ 160 µM) | MIC (Enterobacter aerogens): 10 µg/mL (≈ 39.9 µM) | MIC (Bacillus subtilis): 10 µg/mL (≈ 39.9 µM) | MIC (Staphylococcus aureus): 50 µg/mL (≈ 200 µM) | MIC [1]: 10 µg/mL (≈ 39.9 µM)
SMILES: CC1(C)CCCC2(C)C1CCC1(C)OC(=O)CC12 (single isomer, unassigned) [Sclareolide, sclareolide]
sensitivity to treatment (Escherichia coli): least sensitive | Zone of inhibition (Escherichia coli; 10 ug/disk): - | Zone of inhibition (Escherichia coli; 100 ug/disk): - | Zone of inhibition (Escherichia coli; 500 ug/disk): + | Zone of inhibition (Escherichia coli; 1000 ug/disk): ++ | sensitivity to treatment (Pseudomonas aeruginosa): least sensitive | Zone of inhibition (Pseudomonas aeruginosa; 10 ug/disk): - | Zone of inhibition (Pseudomonas aeruginosa; 100 ug/disk): - | Zone of inhibition (Pseudomonas aeruginosa; 500 ug/disk): ++ | Zone of inhibition (Pseudomonas aeruginosa; 1000 ug/disk): ++ | sensitivity to treatment (Propionibacterium acnes): more sensitive | Zone of inhibition (Propionibacterium acnes; 10 ug/disk): + | Zone of inhibition (Propionibacterium acnes; 100 ug/disk): +++ | Zone of inhibition (Propionibacterium acnes; 500 ug/disk): +++ | Zone of inhibition (Propionibacterium acnes; 1000 ug/disk): +++ | sensitivity to treatment (Enterobacter aerogens): more sensitive | Zone of inhibition (Enterobacter aerogens; 10 ug/disk): + | Zone of inhibition (Enterobacter aerogens; 100 ug/disk): ++ | Zone of inhibition (Enterobacter aerogens; 500 ug/disk): +++ | Zone of inhibition (Enterobacter aerogens; 1000 ug/disk): +++ | Zone of inhibition (Bacillus subtilis; 10 ug/disk): + | Zone of inhibition (Bacillus subtilis; 100 ug/disk): + | Zone of inhibition (Bacillus subtilis; 500 ug/disk): + | Zone of inhibition (Bacillus subtilis; 1000 ug/disk): ++ | sensitivity to treatment (Staphylococcus aureus): more sensitive | Zone of inhibition (Staphylococcus aureus; 10 ug/disk): + | Zone of inhibition (Staphylococcus aureus; 100 ug/disk): ++ | Zone of inhibition (Staphylococcus aureus; 500 ug/disk): +++ | Zone of inhibition (Staphylococcus aureus; 1000 ug/disk): +++ | Zone of inhibition ([1]; 10 ug/disk): + | Zone of inhibition ([1]; 100 ug/disk): ++ | Zone of inhibition ([1]; 500 ug/disk): +++ | Zone of inhibition ([1]; 1000 ug/disk): +++ | activity against Gram positive bacteria [2]: more active against Gram positive bacteria
